In patent publication US6096930A, “Herbicidal cyclohexane-1,3-dione derivatives and their preparation process” (Korea Research Institute of Chemical Technology, priority 1994, dated 2000):
Where two headings read alike, the source gives them in different places.

Legend:
Assay type in all cases: in vivo
[1] = tested on: ZEAMX; test: Herbicidal activity, upland test, post-emergence; details: 1.250 kg/ha
Source text: (§1) The sterilized sandy loam soil is filled in test pot having a surface area of 348 cm^2 for upland test conditions or 115 cm^2 for paddy test species were planted in furrows.
The pots for the post-emergent tests were placed in a greenhouse and watered for 9~14 days, then the foliage of test plants was sprayed with a solution of the test compound in a mixture of acetone and water containing a small amount of Tween 20.
After spraying the plants were kept for one day, then watered regularly for 14 to 21 days, and herbicidal activity data were recorded.
(§2) The herbicidal activity data were taken visually by percent control, wherein 0 signifies no herbicidal effect and 100 signifies complete kill.

[2] = tested on: ECHOR; test: Herbicidal activity for paddy test
Summary of the method: (§3)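 Paddy test species were sown in furrows in sterilized sandy loam soil filled into pots with a 115 cm^2 surface area. Herbicidal activity was scored visually as percent control, from 0 (no effect) to 100 (complete kill).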

[3] = tested on: SAGPY; test: Herbicidal activity for paddy test
Summary of the method: as §3

[4] = tested on: ORYSA; test: Herbicidal activity for paddy test; details: for plant injury at 2 g/ha: 0.002 kg/ha; for plant injury at 8 g/ha: 0.008 kg/ha; for plant injury at 31 g/ha: 0.031 kg/ha; for plant injury at 125 g/ha: 0.125 kg/ha; for plant injury at 500 g/ha: 0.500 kg/ha
Summary of the method: as §3

[5] = tested on: MOOVA; test: Herbicidal activity for paddy test
Summary of the method: as §3

[6] = tested on: SCPJU; test: Herbicidal activity for paddy test
Summary of the method: as §3

[7] = tested on: ABUTH; test: Herbicidal activity, upland test, pre-emergence
Method: as §1
(§4) For the pre-emergent tests, were sprayed on the soil one day after planting test compound in a mixture of acetone and 7 ml of the water containing up to 0.1% Tween 20.
(§5) The concentration of the test compound in solution was varied to give a range of application rates, generally 4.0 kg/ha and submultiples thereof. The pots were placed in a greenhouse and watered regularly at the soil surface for 21 days and herbicidal effects were visually rated by a percent control.
as §2

[8] = tested on: GLXMX; test: Herbicidal activity, upland test, pre-emergence
Method: as §1, §4, §5, §2

[9] = tested on: ORYSA; test: Herbicidal activity, upland test, pre-emergence
Method: as §1, §4, §5, §2

[10] = tested on: TRZAW; test: Herbicidal activity, upland test, pre-emergence
Method: as §1, §4, §5, §2

[11] = tested on: PANDI; test: Herbicidal activity, upland test, pre-emergence
Method: as §1, §4, §5, §2

[12] = 3 Leaf, read-out: Herbicidal activity, ORYSA (3 Leaf)
[13] = seed, read-out: Herbicidal activity, ORYSA (seed)

## CCCC(=NOC)C1=C(O)CC(c2c(C)c(C)c3c(c2C)CC(C)(C)C3)CC1=O (stereo not drawn) [Compound 6]
[1]
  Herbicidal activity, ZEAMX: 100 % inhibition
[2]; 0.002 kg/ha
  pest or weed control at 2 g/ha: 0%
[2]; 0.008 kg/ha
  pest or weed control at 8 g/ha: 60%
[2]; 0.031 kg/ha
  pest or weed control at 31 g/ha: 100%
[2]; 0.125 kg/ha
  pest or weed control at 125 g/ha: 100%
[2]; 0.500 kg/ha
  pest or weed control at 500 g/ha: 100%
[3]; 0.002 kg/ha
  pest or weed control at 2 g/ha: 0%
[3]; 0.008 kg/ha
  pest or weed control at 8 g/ha: 0%
[3]; 0.031 kg/ha
  pest or weed control at 31 g/ha: 0%
[3]; 0.125 kg/ha
  pest or weed control at 125 g/ha: 0%
[3]; 0.500 kg/ha
  pest or weed control at 500 g/ha: 40%
[4]; [12]
  plant injury at 2 g/ha: 0%
  plant injury at 8 g/ha: 0%
  plant injury at 31 g/ha: 0%
  plant injury at 125 g/ha: 20%
  plant injury at 500 g/ha: 65%
[4]; [13]
  plant injury at 2 g/ha: 0%
  plant injury at 8 g/ha: 0%
  plant injury at 31 g/ha: 100%
  plant injury at 125 g/ha: 100%
  plant injury at 500 g/ha: 100%
[5]; 0.002 kg/ha
  pest or weed control at 2 g/ha: 0%
[5]; 0.008 kg/ha
  pest or weed control at 8 g/ha: 0%
[5]; 0.031 kg/ha
  pest or weed control at 31 g/ha: 0%
[5]; 0.125 kg/ha
  pest or weed control at 125 g/ha: 0%
[5]; 0.500 kg/ha
  pest or weed control at 500 g/ha: 0%
[6]; 0.002 kg/ha
  pest or weed control at 2 g/ha: 0%
[6]; 0.008 kg/ha
  pest or weed control at 8 g/ha: 0%
[6]; 0.031 kg/ha
  pest or weed control at 31 g/ha: 0%
[6]; 0.125 kg/ha
  pest or weed control at 125 g/ha: 0%
[6]; 0.500 kg/ha
  pest or weed control at 500 g/ha: 0%
[7]; 0.016 kg/ha
  Herbicidal activity, ABUTH: 0 % inhibition
[7]; 0.063 kg/ha
  Herbicidal activity, ABUTH: 0 % inhibition
[7]; 1.000 kg/ha
  Herbicidal activity, ABUTH: 0 % inhibition
[7]; 1.250 kg/ha
  Herbicidal activity, ABUTH: 0 % inhibition
[8]; 0.016 kg/ha
  Herbicidal activity, GLXMX: 0 % inhibition
[8]; 0.063 kg/ha
  Herbicidal activity, GLXMX: 0 % inhibition
[8]; 1.000 kg/ha
  Herbicidal activity, GLXMX: 0 % inhibition
[8]; 1.250 kg/ha
  Herbicidal activity, GLXMX: 0 % inhibition
[9]; 0.016 kg/ha
  Herbicidal activity, ORYSA: 0 % inhibition
[9]; 0.063 kg/ha
  Herbicidal activity, ORYSA: 30 % inhibition
[9]; 1.000 kg/ha
  Herbicidal activity, ORYSA: 80 % inhibition
[9]; 1.250 kg/ha
  Herbicidal activity, ORYSA: 30 % inhibition
[10]; 0.016 kg/ha
  Herbicidal activity, TRZAW: 0 % inhibition
[10]; 0.063 kg/ha
  Herbicidal activity, TRZAW: 0 % inhibition
[10]; 1.000 kg/ha
  Herbicidal activity, TRZAW: 60 % inhibition
[10]; 1.250 kg/ha
  Herbicidal activity, TRZAW: 20 % inhibition
[11]; 0.016 kg/ha
  Herbicidal activity, PANDI: 0 % inhibition
[11]; 0.063 kg/ha
  Herbicidal activity, PANDI: 80 % inhibition
[11]; 1.000 kg/ha
  Herbicidal activity, PANDI: 100 % inhibition
[11]; 1.250 kg/ha
  Herbicidal activity, PANDI: 100 % inhibition
